Where “and” joins values, the source holds several entries; their conditions need not be identical. Equal entries are not always repeated.

One substance from patent US12296018B2, “Albumin binding peptide-drug (AlBiPeD) conjugates and methods of making and using same” (priority 2018, dated 2025) can be followed below.

Data set [1] relates to C26 colon carcinoma tumors. The data set can be described thus: In vivo tumor regression, syngeneic C26 model. Details: species or system BALB/c mice. The method, then:
In vivo tumor regression For in vivo tumor implantation, C26 cells at 5×10^5 cells in 30 μL Minimum Essential Medium (MEM) (Invitrogen, Carlsbad, CA) and MIA PaCa-2 cells at 2×10^6 cells in 50 μL 10:90 v/v MEM: Matrigel matrix (Corning Inc, Corning, New York) were inoculated in the right flank of normal and athymic nude BALB/c mice, respectively. Tumor cells were allowed to grow until the tumor volume, calculated as π/6×length×width^2, reached 75-100 mm^3 for C26 tumors and 100-125 mm^3 for MIA PaCa-2 tumors. Tumor bearing mice were then treated with ABD-Dox at 10 and 20 mg Dox Equiv.kg^−1 BW, AlDox at 20 mg Dox Equiv.kg^−1 BW, and free Dox at 10 mgkg^−1 BW. Tumor volumes and body weights were monitored for 100 days after treatment and mice displaying excessive tumor volume (>[…]), body weight loss (>15%), or ill health were euthanized. Tumor growth and survival data were analyzed by GraphPad Prism software. Survival curves were generated with the Kaplan-Meier method and compared with the log-rank (Mantel-Cox) test. Tumor growth data were compared with a paired one-way ANOVA followed by Tukey-Kramer (Tukey's) post-hoc test. P<0.05 was considered as statistically significant.
For in vivo tumor regression studies, a single dose of ABD-Dox was injected via tail vein at 10 mg Dox Equiv.kg^−1 BW (MTD of free Dox) and 20 mg Dox Equiv.kg^−1 BW (MTD of ABD-Dox) in separate cohorts of BALB/c mice with s.c. C26 tumors or nude mice with s.c. MIA Paca-2 tumors. Free Dox was injected at its MTD of 10 mgkg-1 BW, and AlDox was injected at 20 mg Dox Equiv.kg^−1 BW, a dose that was reported to be safe in previous studies. All animals were injected when the tumors were 75-100 mm; in size for C26 tumors and 100-125 mm^3 for MIA PaCa-2 tumors.

Data set [2] has as its system C26 murine colon carcinoma cells. The data set can be described thus: In vitro cytotoxicity (MTS, 72 h) C26. It is filed as cell-based. As to the method: In vitro cytotoxicity C26 murine colon carcinoma cells and three different pancreatic cancer cell lines, BxPC-3, AsPC-1, and MIA PaCa-2, were used to study the in vitro cytotoxicity of ABD-DOX and Dox. Cells were cultured and grown as monolayers at 37° C. with C02 in a humidified incubator and were passaged at ˜80% confluency using 0.05% trypsin-EDTA (Invitrogen, Carlsbad, CA). C26, BxPC-3, AsPC-1, and MIA PaCa-2 cells were seeded in 96-well plates (5,000 cells/well) and incubated overnight. Three-fold serial dilutions of drug were then added to the wells in triplicate and also to control wells (media with no cells) to correct for the background Dox absorbance. After 72 h treatment, 20 μL MTS reagent was added to each well and was incubated for 3 h at 37° C., and the absorbance at 490 nm was measured using a Victor3 plate reader (Perkin Elmer, Boston, MA). Cell viability (%) was defined as the percentage of the absorbance of the drug-treated cells relative to buffer-treated cells and IC50 values were determined using logistic non-linear regression analysis with GraphPad Prism software. The IC50 was defined as the Dox Equiv. concentration of formulations resulting in 50% growth inhibition compared with a negative control, buffer-treated cells.

A short description of data set [3]: Intravenous pharmacokinetics in healthy BALB/c mice. As to the method: Pharmacokinetics and biodistribution Pharmacokinetics and biodistribution experiments were performed to study the concentration of ABD-Dox in blood and tissues over time following intravenous (i.v.) administration. For the pharmacokinetic study, ABD-Dox and Dox in PBS and AlDox in 10 mM sodium phosphate, 5% D-(+)-glucose, pH 5.8 were injected at 5 mg Dox Equiv. per kg of body weight (BW) into healthy BALB/c mice. 10 μL blood samples were collected at 40 s, 15 min and 30 min, and 2, 4, 8, 24, 48, 72 and 96 h post injection and were diluted into heparinized PBS (1 kUmL^−1), and centrifuged at 4,000 rcf, 10 min, 4° C. to collect the plasma. 10 μL of the plasma samples were then diluted in 490 μL of acidified isopropanol (0.075 M HCl, 10% water) and incubated overnight at 4° C. For the biodistribution study, ABD-Dox and Dox in PBS were injected at 5 mg Dox Equiv.kg^−1 BW into C26 tumor-bearing BALB/c mice. At 2 h, 24 h, and 72 h post-injection, mice were sacrificed and tumor, heart, lung, liver, spleen, kidney and muscle tissues were dissected, weighed, homogenized in acidified isopropanol using a Mini-Beadbeater (Biospec, Bartlesville, OK) with 2 mm diameter zirconia beads for 1-2 min, and were incubated overnight at 4° C. Following overnight incubation in acidified isopropanol, plasma and tissue samples were centrifuged at 16,000 rcf, 4° C. for 10 min and the supernatants were loaded onto black 96-well plates in duplicate and the Dox fluorescence was measured using on a Victor3 microplate reader (Perkin Elmer, Waltham, MA) with fluorescence excitation at 485 nm and emission at 590 nm. Tissues were also dissected from three untreated mice, processed in the same manner, serially diluted, and loaded on the plates to prepare a standard curve of fluorescence intensity versus the weight for each tissue from which the background tissue fluorescence was calculated and subtracted for each sample. Serial dilution of free Dox in acidified isopropanol was used as standard to quantify the Dox concentration as […] per liter of plasma (μM) and as the percent of the injected dose per gram (% ID g^−1) in the tumor and other tissues. Plasma concentrations of Dox Equiv. of ABD-Dox versus time were fit to a two-compartment model using SAAM II software (SAAM Institute, Seattle, WA) and the elimination half-life and the area-under-curve were computed. The tissue concentration of Dox. Equiv. of ABD-Dox and free Dox at each time point were compared in GraphPad Prism software (GraphPad, San Diego, CA) by Student's t-test with P<0.05 considered statistically significant.

Setting [4] is: single dose 10 mg Dox Equiv.kg^−1 BW.
The mark [5] stands for this setting: single dose 20 mg Dox Equiv.kg^−1 BW.

Turning to “ABD-Dox (GLAEAKVLANRELDKYGVSDYYKNLINNAKTVEGVKALIDEILAALPCGGCGGCGGCGG)”, in data set [1] (10 mg Dox Equiv.kg^−1 BW), the tumor disappearance entry was “complete tumor disappearance within 2 weeks” and the “tumor recurrence in mice with eradicated tumors” value is 33%. Also, in data set [1] (20 mg Dox Equiv.kg^−1 BW), the “eradication of C26 tumors” value is on record as “incomplete eradication”, the “mice that did not survive over the 100-day course of study” value stood at 75%, the “recurrence of the primary tumor” value is listed as “without recurrence of the primary tumor in any mice” and the “therapeutic efficacy vs AlDox in terms of overall survival” value is “higher”. Also, in data set [1] (20 mg Dox Equiv.kg^−1 BW), the “therapeutic efficacy vs AlDox with respect to tumor regression” value is recorded as “equivalent”. In data set [1] (setting [4]), the “survival compared with free Dox (10 mgkg^−1 BW)” value was “superior efficacy” and the “tumor regression compared with free Dox (10 mgkg^−1 BW)” value is “superior efficacy”. For the same substance, in data set [1] (setting [5]), the “survival compared with free Dox (10 mgkg^−1 BW)” value is recorded as “superior efficacy” and the “tumor regression compared with free Dox (10 mgkg^−1 BW)” value is listed as “superior efficacy”. Also, in data set [2] (72 h incubation, Dox Equiv. concentration), the IC50 (in general, the concentration that inhibits the measured activity by half) was 6.4 µM and 6.43 µM. The “in vitro cytotoxicity, fold lower than free Dox” value in data set [2] (C26 and MIA PaCa-2 cells) is recorded as 10-30 fold. Besides, in data set [3] (96 h after injection), the “drug in plasma at late time point” value is reported as “detectable in plasma even 96 h after injection”. The “Area under curve (total plasma exposure)” value in data set [3] (i.v., 5 mg Dox Equiv. per kg BW, plasma) came out at 2263.6 ± 44.7 µM·h. Also, the Elimination half-life in data set [3] (i.v., 5 mg Dox Equiv. per kg BW, plasma, two-compartment model) is 29.4 ± 0.8 h and 29.4 h. For the same substance, the “area under the curve, fold higher than AlDox” value in data set [3] (mouse, in vivo) worked out at 3 fold.
